System in one data set: not given
Experiment: not given
Conditions: not given
In the case of `O=C(Nc1cccc(OCc2ccccc2)c1)C(O)C12CC3CC(CC(C3)C1)C2` (stereo not shown) [Compound 110, 2-Adamantan-1-yl-N-(3-benzyloxy-phenyl)-2-hydroxy-acetamide], the melting point – broadly, the temperature, or range, at which the solid turns liquid – fell in the range of 130 to 132 °C. Still for that read-out and setting: the figure for `O=C(Nc1ccc(-n2ccnc2)cc1)C(O)C12CC3CC(CC(C3)C1)C2` (stereo not shown) [Compound 119, 2-Adamantan-1-yl-2-hydroxy-N-(4-imidazol-1-yl-phenyl)-acetamide] is 219 to 220 °C; for `O=C(Nc1cccc(OCc2ccccc2)c1)C(=O)C12CC3CC(CC(C3)C1)C2` [Compound 13, 2-Adamantan-1-yl-N-(3-benzyloxy-phenyl)-2-oxo-acetamide] it is 106 to 107 °C.

The test system of the next data set is soluble epoxide hydrolase (sEH). Briefly: Fluorescent Assay for Mouse and Human Soluble Epoxide Hydrolase (CMNPC substrate). It counts as biochemical. As to conditions: Concentration 2000 nM.
Take `O=C(NCCc1ccc(C(=O)N2CCOCC2)cc1)C(O)CCC12CC3CC(CC(C3)C1)C2` (stereo not shown) [Compound 157, 4-Adamantan-1-yl-2-hydroxy-N-(4-(morpholine-4-carbonyl)phenethyl)butanamide]: the % Inhibition (commonly how much of the control response was suppressed) is reported as 81%.

For the molecule `O=C(CCC12CC3CC(CC(C3)C1)C2)C(=O)NCCc1ccc(OCc2ccccc2)cc1` [Compound 25], the “% Inhibition” value was 23%.

The test system is the same in the next data set. The data set is described as above. The class given is biochemical. As to conditions: Concentration 500 nM. The text has this:
Fluorescent Assay for Mouse and Human Soluble Epoxide Hydrolase Recombinant mouse sEH (MsEH) and human sEH (HsEH) were produced in a baculovirus expression system as previously reported. Grant et al., J. Biol. Chem., 268:17628-17633 (1993); Beetham et al., Arch. Biochem. Biophys., 305:197-201 (1993). The expressed proteins were purified from cell lysate by affinity chromatography. Wixtrom et al., Anal. Biochem., 169:71-80 (1988). Protein concentration was quantified using the Pierce BCA assay using bovine serum albumin as the calibrating standard. The preparations were at least 97% pure as judged by SDS-PAGE and scanning densitometry. They contained no detectable esterase or glutathione transferase activity which can interfere with the assay. The assay was also evaluated with similar results in crude cell lysates or homogenate of tissues. The IC50s for each inhibitor were according to the following procedure: [drawing 218] […] Jones P. D. et. al.; Analytical Biochemistry 2005; 343: pp. 66-75) Bis/Tris HCl 25 mM pH 7.0 containing 0.1 mg/mL of BSA (buffer […] at 0.25 mM in DMSO. Mother solution of enzyme in buffer A (Mouse sEH at 6 μg/mL and Human sEH at 5 μg/mL). Inhibitor dissolved in DMSO at the appropriate concentration. In a black 96 well plate, fill all the wells with 150 μL of buffer A. Add 2 μL of DMSO in well A2 and A3, and then add 2 μL of inhibitor solution in A1 and A4 through A12. Add 150 μL of buffer A in row A, then mix several time and transfer 150 μL to row B. Repeat this operation up to row H. The 150 μL removed from row H is discarded. Add 20 μL of buffer A in column 1 and 2, then add 20 μL of enzyme solution to column 3 to 12. Incubate the plate for 5 minutes in the plate reader at 30° C. During incubation prepare the working solution of substrate by mixing 3.68 mL of buffer A (4×0.920 mL) with 266 μL (2×133 μL) of substrate solution). At t=0, add 30 μL of working substrate solution with multi-channel pipette labeled “Briggs 303” and start the reading ([S]final: 5 μM). Read with ex: 330 nm (20 nm) and em: 465 nm (20 nm) every 30 second for 10 minutes. The velocities are used to analyze and calculate the IC50s. Tables 4-6 show the activity of compounds when tested with the assay at 50, 500, 5000, 50000, and 500000 nM.
For `O=C(Nc1cccc(OCc2ccccc2)c1)C(O)C12CC3CC(CC(C3)C1)C2` (stereo not shown) [Compound 110, 2-Adamantan-1-yl-N-(3-benzyloxy-phenyl)-2-hydroxy-acetamide], the “% Inhibition” value is listed as 79%.

Staying with this data set, now noted: Concentration 5000 nM.
Take `O=C(NCCc1ccc(F)cc1)C(O)CCC12CC3CC(CC(C3)C1)C2` (stereo not shown) [Compound 145, 4-Adamantan-1-yl-N-(4-fluorophenethyl)-2-hydroxybutanamide]: the “% Inhibition” value is reported as 95%. Turning to `O=C(NCc1ccc(OCc2ccccc2)cc1)C(O)CCC12CC3CC(CC(C3)C1)C2` (stereo not shown) [Compound 146, N-(4-(Benzyloxy)benzyl)-4-adamantyl-2-hydroxybutanamide], the “% Inhibition” value is recorded as 73%. Take `O=C(CC12CC3CC(CC(C3)C1)C2)C(=O)Nc1ccc(OCc2ccccc2)cc1` [Compound 17, 3-Adamantan-1-yl-N-(4-benzyloxy-phenyl)-2-oxo-propionamide]: the “% Inhibition” value is listed as 64%.

For the molecule `O=C(Nc1ccc(OCc2ccccc2)cc1)C(O)CCC12CC3CC(CC(C3)C1)C2` (stereo not shown) [Compound 143, N-(4-(Benzyloxy)phenyl)-4-adamantan-1-yl-2-hydroxybutanamide], the “% Inhibition” value came out at 99%. On the same count and under the same terms, the figure for `O=C(NCCc1ccc(Oc2ccccc2)cc1)C(O)CCC12CC3CC(CC(C3)C1)C2` (stereo not shown) [Compound 151, 4-Adamantan-1-yl-2-hydroxy-N-(4-phenoxyphenethyl)butanamide] is 90%. For `O=C(NC1CCN(S(=O)(=O)c2ccc(Cl)cc2)CC1)C(O)CC12CC3CC(CC(C3)C1)C2` (stereo not shown) [Compound 148, N-(1-(4-Chlorophenylsulfonyl)piperidin-4-yl)-3-adamantan-1-yl-2-hydroxypropanamide], the “% Inhibition” value is on record as 76%. On to `O=C(O)CCCCCCCCCCCNC(=O)C(O)CCC12CC3CC(CC(C3)C1)C2` (stereo not shown) [Compound 165, 12-(4-Adamantan-1-yl-2-hydroxybutanamido)dodecanoic acid], for which the “% Inhibition” value is listed as 86%. Consider `O=C(Nc1cccc(OCc2ccccc2)c1)C(O)c1ccc(C(F)(F)F)cc1` (stereo not shown) [Compound 105, N-(3-Benzyloxy-phenyl)-2-hydroxy-2-(4-trifluoromethyl-phenyl)-acetamide], for which the “% Inhibition” value was 99%. On the same count and under the same terms, the result for `O=C(Nc1cccc(OCc2ccccc2)c1)C(=O)C12CC3CC(CC(C3)C1)C2` [Compound 13, 2-Adamantan-1-yl-N-(3-benzyloxy-phenyl)-2-oxo-acetamide] reads 86%; that for `O=C(Nc1cccc(OCc2ccccc2)c1)C(O)C1CCCCC1` (stereo not shown) [Compound 113, N-(3-Benzyloxy-phenyl)-2-cyclohexyl-2-hydroxy-acetamide], 66%. Consider `Cc1ccc(S(=O)(=O)N2CCC(CNC(=O)C(O)C34CC5CC(CC(C5)C3)C4)CC2)cc1` (stereo not shown) [Compound 127, 2-Adamantan-1-yl-2-hydroxy-N-[1-(toluene-4-sulfonyl)-piperidin-4-ylmethyl]-acetamide], for which the “% Inhibition” value was found to be 84%.

On to `O=C(Nc1ccc(OCc2ccccc2)cc1)C(O)CCc1ccc(C(F)(F)F)cc1` (stereo not shown) [Compound 130], for which the “% Inhibition” value was 89%. Still for that read-out and setting: the result for `O=C(Nc1ccc(OCc2ccccc2)cc1)C(=O)C12CC3CC(CC(C3)C1)C2` [Compound 20] reads 93%. The same measure, in the same setting: the result for `O=C(O)CCCCCCCCCCCNC(=O)C(O)Cc1ccc(C(F)(F)F)cc1` (stereo not shown) [Compound 164, 12-(2-Hydroxy-3-(4-(trifluoromethyl)phenyl)propanamido)dodecanoicacid] reads 59%.

With `O=C(Nc1cccc(OCCCN2CCOCC2)c1)C(O)c1ccc(C(F)(F)F)cc1` (stereo not shown) [Compound 101, 2-Hydroxy-N-[3-(3-morpholin-4-yl-propoxy)-phenyl]-2-(4-trifluoromethyl-phenyl)-acetamide], the “% Inhibition” value was found to be 95%. `Cc1ccc(S(=O)(=O)N2CCC(NC(=O)C(=O)C3CCCCC3)CC2)cc1` [Compound 10, 2-Cyclohexyl-2-oxo-N-[1-(toluene-4-sulfonyl)-piperidin-4-yl]-acetamide]: the “% Inhibition” value amounted to 70%.

The data set is the same for the next values; noted with them: Concentration 50000 nM.
As for `O=C(Nc1ccc(-n2ccnc2)cc1)C(O)C12CC3CC(CC(C3)C1)C2` (stereo not shown) [Compound 119, 2-Adamantan-1-yl-2-hydroxy-N-(4-imidazol-1-yl-phenyl)-acetamide], the “% Inhibition” value is 98%.

Consider `O=C(Nc1ccc(-n2ccnc2)cc1)C(=O)C1CCCCC1` [Compound 11, 2-Cyclohexyl-N-(4-imidazol-1-yl-phenyl)-2-oxo-acetamide], for which the “% Inhibition” value is 80%. Same read-out and setting: the result for `O=C(NCCN1CCOCC1)c1ccc(NC(=O)C(O)c2ccc(C(F)(F)F)cc2)cc1` (stereo not shown) [Compound 102, 4-[2-Hydroxy-2-(4-trifluoromethyl-phenyl)-acetylamino]-N-(2-morpholin-4-yl-ethyl)-benzamide] reads 63%.

(Values after patent US20080200467A1, “SOLUBLE EPOXIDE HYDROLASE INHIBITORS” (Arete Therapeutics, Inc., priority 2006, published 2008).)
